This assay relates to urease produced by Arthrobacter mobilis SAM0752 (FERM BP-2127). Description: Km value for urea of the purified urease. The assay is classed as biochemical. The note with it: 0.1M acetic acid buffer (pH 4.5), 37° C. On the procedure:
The activity was determined by measuring the amount of ammonia produced by decomposition of urea during the enzyme reaction per unit of time. In particular, 0.025 ml of an enzyme solution was added to a reaction solution containing 0.2 ml of a 0.1M acetic acid buffer (pH 4.5) and 0.025 ml of a 0.1M urea solution, followed by incubation at 37° C. for a given time (10 to 20 minutes). The reaction was terminated by adding 0.025 ml of a 33% trichloroacetic acid solution. […] of the reaction solution was added to 1 ml of a coloring solution which had been prepared by mixing 10 ml of a 0.3M phosphate buffer (pH 7.5), 0.56 ml of 25 mg/ml o-phthalaldehyde in ethanol, and 0.56 ml of 5 mg/ml 2-mercaptoethanol in ethanol. After allowing the thus-obtained mixture to stand for 45 minutes at room temperature, the increase in absorbance at a wavelength of 410 nm was measured. The enzyme activity was then calculated from a calibration curve which was formed using predetermined amounts of ammonium chloride as a reference substance. This method was based on the method by Heini et al. [Eur. J. Biochem., 162, 541 (1987)]. The activity unit of the enzyme was defined as the amount of ammonia produced in terms of μ mol/min.

This is an account of results in patent publication US5006468A, “Novel urease and method of producing the same” (Suntory Limited, priority 1987, dated 1991).

By Km is commonly meant the substrate concentration at which the rate is half of its maximum.

On to `NC(N)=O` [urea], for which the Km (20% ethanol added) was about 3.7 mM and the Km (no ethanol added) is about 3.6 mM.
